Data from the supplement of paper PMC10627819.

How the values were obtained:
S. aureus DSM 20231 = assay: fitness (endpoint OD595 vs no drug) (fraction); higher = more growth
Procedure, shortened: (§1)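 Bacterial growth was followed in 384-well plates seeded at OD595 0.01, with 30 µl per well, or 55 µl for S. pneumoniae, in TSB, LB Lennox or CY at 37 °C. OD595 was read every 30 min for 14 h, and each reading had the first reading subtracted as background. Fitness is the background-corrected optical density at entry into stationary phase divided by the robust mean of the no-drug control wells. This ratio is capped at 1.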

S. pneumoniae D39V = assay: as above
Procedure, shortened: as §1

CC(=O)Oc1ccccc1C(=O)O [Acetylsalicylic acid] + COc1cc(Cc2cnc(N)nc2N)cc(OC)c1OC [Trimethoprim]
fitness, S. aureus DSM 20231
Details	partner 0.125 µg/mL	partner 0.25 µg/mL	partner 0.5 µg/mL	partner 1 µg/mL
first compound 250 µg/mL	0.582	0.516	0.225	0.0606
first compound 500 µg/mL	–	–	0.276	0.0647
first compound 1000 µg/mL	0.4	–	0.23	0.0318

CC(=O)Oc1ccccc1C(=O)O [Acetylsalicylic acid] + CN[C@@H]1[C@H](O)[C@H](NC)[C@H]2O[C@@]3(O)C(=O)C[C@@H](C)O[C@H]3O[C@@H]2[C@H]1O [Spectinomycin]
fitness
Details	partner 4 µg/mL	partner 8 µg/mL	partner 16 µg/mL
S. aureus DSM 20231, first compound 250 µg/mL	0.871	0.866	–
S. pneumoniae D39V, first compound 250 µg/mL	0.934	0.911	0.817
S. pneumoniae D39V, first compound 500 µg/mL	0.862	0.801	0.691
S. pneumoniae D39V, first compound 1000 µg/mL	0.64	0.601	0.536

fitness, S. aureus DSM 20231, one replicate
Details	first compound 250 µg/mL	first compound 500 µg/mL	first compound 1000 µg/mL
partner 32 µg/mL	0.541	0.631	0.101
partner 64 µg/mL	0.253	0.32	0.042

CN(C)[C@@H]1C(O)=C(C(N)=O)C(=O)[C@@]2(O)C(O)=C3C(=O)c4c(O)ccc(Cl)c4[C@@](C)(O)[C@H]3C[C@@H]12 [Chlortetracycline] + CO[C@@]12[C@H](COC(N)=O)C3=C(C(=O)C(C)=C(N)C3=O)N1C[C@@H]1N[C@@H]12 [Mitomycin C]
S. aureus DSM 20231, first compound 0.006 µg/mL, one replicate
Details	fitness
partner 0.0156 µg/mL	0.65
partner 0.0312 µg/mL	0.64
partner 0.0625 µg/mL	0.542

fitness
Details	first compound 0.012 µg/mL	first compound 0.024 µg/mL	first compound 0.048 µg/mL	first compound 0.375 µg/mL	first compound 0.75 µg/mL	first compound 1.5 µg/mL
S. aureus DSM 20231, partner 0.0156 µg/mL	0.55	0.288	0.0746	–	–	–
S. aureus DSM 20231, partner 0.0312 µg/mL	0.52	0.224	0.0614	–	–	–
S. aureus DSM 20231, partner 0.0625 µg/mL	0.384	0.174	0.17	–	–	–
S. pneumoniae D39V, partner 0.001075 µg/mL	0.924	0.895	0.824	–	–	–
S. pneumoniae D39V, partner 0.002 µg/mL	–	–	–	0.0654	0.0249	0.0576
S. pneumoniae D39V, partner 0.00215 µg/mL	0.853	0.832	0.788	–	–	–
S. pneumoniae D39V, partner 0.004 µg/mL	–	–	–	0.0793	0.0699	0.0536
S. pneumoniae D39V, partner 0.0043 µg/mL	0.687	0.713	0.645	–	–	–
S. pneumoniae D39V, partner 0.008 µg/mL	–	–	–	0.0339	0.0265	0.0168

CC(=O)Oc1ccccc1C(=O)O [Acetylsalicylic acid] + O=C(N[C@H](CO)[C@H](O)c1ccc([N+](=O)[O-])cc1)C(Cl)Cl [Chloramphenicol]
fitness, S. aureus DSM 20231
Details	first compound 250 µg/mL	first compound 500 µg/mL	first compound 1000 µg/mL
partner 0.75 µg/mL	0.688	–	0.307
partner 1.5 µg/mL	0.498	–	0.225
partner 3 µg/mL	0.136	0.098	0.0799

CC(=O)Oc1ccccc1C(=O)O [Acetylsalicylic acid] + CC1=C\[C@@H](O)CC(=O)Cc2nc(co2)C(=O)N2CCC=C2C(=O)O[C@H](C(C)C)[C@H](C)/C=C/C(=O)NC\C=C\1 [Virginiamycin M1]
fitness
Details	first compound 250 µg/mL	first compound 500 µg/mL	first compound 1000 µg/mL
S. aureus DSM 20231, partner 0.0625 µg/mL	0.86	0.764	0.564
S. aureus DSM 20231, partner 0.125 µg/mL	0.922	–	–
S. aureus DSM 20231, partner 0.25 µg/mL	0.877	0.715	0.503
S. pneumoniae D39V, partner 0.5 µg/mL	0.967	0.964	0.872
S. pneumoniae D39V, partner 1 µg/mL	0.914	0.961	–
S. pneumoniae D39V, partner 2 µg/mL	0.933	0.903	–

fitness, one replicate
Details	first compound 250 µg/mL	first compound 500 µg/mL	first compound 1000 µg/mL
S. aureus DSM 20231, partner 0.5 µg/mL	0.776	0.789	0.371
S. aureus DSM 20231, partner 1 µg/mL	0.818	0.781	0.389
S. pneumoniae D39V, partner 0.15 µg/mL	0.954	0.988	0.949
S. pneumoniae D39V, partner 0.3 µg/mL	0.951	0.938	0.918

CC(=O)Oc1ccccc1C(=O)O [Acetylsalicylic acid] + CCC[C@@H]1C[C@@H](C(=O)N[C@@H]([C@H]2O[C@H](SC)[C@H](O)[C@@H](O)[C@H]2O)[C@@H](C)O)N(C)C1 [Lincomycin]
fitness
Details	partner 0.1 µg/mL	partner 0.2 µg/mL	partner 0.215 µg/mL	partner 0.4 µg/mL	partner 0.43 µg/mL	partner 0.8 µg/mL	partner 0.86 µg/mL
S. aureus DSM 20231, first compound 250 µg/mL	0.863	0.84	–	–	–	–	–
S. aureus DSM 20231, first compound 500 µg/mL	0.81	0.795	–	–	–	–	–
S. aureus DSM 20231, first compound 1000 µg/mL	–	–	–	0.204	–	–	–
S. pneumoniae D39V, first compound 250 µg/mL	–	0.528	0.866	0.389	0.748	0.116	0.377
S. pneumoniae D39V, first compound 500 µg/mL	–	0.455	0.824	0.368	0.749	0.0711	0.389
S. pneumoniae D39V, first compound 1000 µg/mL	–	0.344	0.841	0.213	0.746	0.0378	0.35

CC(=O)Oc1ccccc1C(=O)O [Acetylsalicylic acid] + Cc1ncc([N+](=O)[O-])n1CCO [Metronidazole]
fitness
Details	partner 0.625 µg/mL	partner 1.073 µg/mL	partner 1.25 µg/mL	partner 2.145 µg/mL	partner 2.5 µg/mL	partner 4.29 µg/mL	partner 5 µg/mL
S. aureus DSM 20231, first compound 250 µg/mL	0.939	–	≥ 1	–	≥ 1	–	–
S. aureus DSM 20231, first compound 500 µg/mL	0.778	–	0.791	–	0.759	–	–
S. pneumoniae D39V, first compound 250 µg/mL	–	0.982	0.971	0.959	0.989	0.937	0.972
S. pneumoniae D39V, first compound 500 µg/mL	–	0.979	0.975	0.965	1	0.975	0.965
S. pneumoniae D39V, first compound 1000 µg/mL	–	0.946	0.906	0.936	0.914	0.932	0.915
